Laboratory results published in ChEMBL document CHEMBL4433269, “Design, synthesis and evaluation of biphenyl imidazole analogues as potent antifungal agents” (Bioorg Med Chem Lett, 2019).

Experiments:
Cryptococcus neoformans = experiment: Antifungal activity against Cryptococcus neoformans cgmcc 2.3161 assessed as inhibition of visible microbe growth by broth microdilution method; assay type: functional
Candida albicans [1] = experiment: Antifungal activity against Candida albicans ATCC SC5314 assessed as inhibition of visible microbe growth by broth microdilution method; assay type: functional
Candida albicans [2] = experiment: Antifungal activity against Candida albicans CPCC 400523 assessed as inhibition of visible microbe growth by broth microdilution method; assay type: functional
Candida tropicalis = experiment: Antifungal activity against Candida tropicalis cgmcc 2.3739 assessed as inhibition of visible microbe growth by broth microdilution method; assay type: functional
Aspergillus fumigatus = experiment: Antifungal activity against Aspergillus fumigatus cgmcc 3.7795 assessed as inhibition of visible microbe growth by broth microdilution method; assay type: functional
Cytochrome P450 1A2 = target: T1, Cytochrome P450 1A2 (Homo sapiens, UniProt P05177); experiment: Inhibition of CYP1A2 in human liver microsomes using phenacetin pre-incubated for 10 mins before NADPH addition and measured after 10 mins by LC/MS/MS analysis; assay type: ADME
T1 sequence (P05177 whole entry): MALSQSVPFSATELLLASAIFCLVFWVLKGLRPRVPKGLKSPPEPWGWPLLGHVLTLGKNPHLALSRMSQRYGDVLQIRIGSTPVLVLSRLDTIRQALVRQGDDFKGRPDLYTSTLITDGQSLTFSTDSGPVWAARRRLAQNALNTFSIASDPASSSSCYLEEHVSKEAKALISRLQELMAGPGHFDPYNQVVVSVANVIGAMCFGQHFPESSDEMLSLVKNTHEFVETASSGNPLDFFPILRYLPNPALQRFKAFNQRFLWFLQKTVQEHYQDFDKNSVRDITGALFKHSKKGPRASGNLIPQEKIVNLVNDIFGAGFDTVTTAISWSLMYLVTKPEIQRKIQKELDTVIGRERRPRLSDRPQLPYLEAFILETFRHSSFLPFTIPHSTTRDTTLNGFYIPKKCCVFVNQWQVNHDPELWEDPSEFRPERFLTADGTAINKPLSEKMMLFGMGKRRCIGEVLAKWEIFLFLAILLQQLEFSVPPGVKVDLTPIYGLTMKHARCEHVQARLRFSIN

Cytochrome P450 2D6 = Cytochrome P450 2D6 (Homo sapiens, UniProt P10635); experiment: Inhibition of CYP2D6 in human liver microsomes using dextromethorphan pre-incubated for 10 mins before NADPH addition and measured after 10 mins by LC/MS/MS analysis; assay type: ADME
Chain of Cytochrome P450 2D6 (P10635 whole entry): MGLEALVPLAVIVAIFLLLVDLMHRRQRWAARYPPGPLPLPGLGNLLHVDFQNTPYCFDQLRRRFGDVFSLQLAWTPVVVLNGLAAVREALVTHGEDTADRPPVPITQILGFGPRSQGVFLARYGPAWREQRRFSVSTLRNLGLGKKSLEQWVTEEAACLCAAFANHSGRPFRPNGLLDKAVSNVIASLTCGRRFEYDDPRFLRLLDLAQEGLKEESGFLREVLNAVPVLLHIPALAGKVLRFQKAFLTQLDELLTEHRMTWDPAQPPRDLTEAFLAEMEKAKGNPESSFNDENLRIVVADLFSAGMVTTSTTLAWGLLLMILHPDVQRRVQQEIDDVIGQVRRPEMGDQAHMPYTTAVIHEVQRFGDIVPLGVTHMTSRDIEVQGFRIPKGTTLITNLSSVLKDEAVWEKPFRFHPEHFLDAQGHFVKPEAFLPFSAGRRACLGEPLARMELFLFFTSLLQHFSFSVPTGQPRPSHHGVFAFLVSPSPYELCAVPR

Cytochrome P450 2C19 = Cytochrome P450 2C19 (Homo sapiens, UniProt P33261); experiment: Inhibition of CYP2C19 in human liver microsomes using S-mephenytoin pre-incubated for 10 mins before NADPH addition and measured after 10 mins by LC/MS/MS analysis; assay type: ADME
Chain of Cytochrome P450 2C19 (P33261 whole entry): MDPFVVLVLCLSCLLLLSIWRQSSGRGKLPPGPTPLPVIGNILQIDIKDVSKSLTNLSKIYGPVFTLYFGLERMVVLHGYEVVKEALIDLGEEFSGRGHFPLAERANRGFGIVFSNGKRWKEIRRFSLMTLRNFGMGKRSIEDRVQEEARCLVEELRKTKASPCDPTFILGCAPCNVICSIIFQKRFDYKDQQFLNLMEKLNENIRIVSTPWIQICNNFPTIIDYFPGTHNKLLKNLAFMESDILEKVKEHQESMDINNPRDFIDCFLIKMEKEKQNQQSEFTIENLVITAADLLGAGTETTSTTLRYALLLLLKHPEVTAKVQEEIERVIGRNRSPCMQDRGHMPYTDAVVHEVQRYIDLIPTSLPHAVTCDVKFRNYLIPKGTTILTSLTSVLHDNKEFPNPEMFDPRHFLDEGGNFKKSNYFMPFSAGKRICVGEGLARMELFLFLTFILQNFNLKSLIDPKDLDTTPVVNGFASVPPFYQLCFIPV

U-87 MG = experiment: Cytotoxicity in human U87 cells assessed as reduction in cell viability incubated for 24 hrs by MTT assay; assay type: cell-based, U-87MG ATCC
Candida albicans [3] = experiment: Antifungal activity against fluconazole-resistant Candida albicans 103 assessed as inhibition of visible microbe growth by broth microdilution method; assay type: functional
Cytochrome P450 3A4 = Cytochrome P450 3A4 (Homo sapiens, UniProt P08684); experiment: Inhibition of CYP3A4 in human liver microsomes using midazolam pre-incubated for 10 mins before NADPH addition and measured after 10 mins by LC/MS/MS analysis; assay type: ADME
Chain of Cytochrome P450 3A4 (P08684 whole entry): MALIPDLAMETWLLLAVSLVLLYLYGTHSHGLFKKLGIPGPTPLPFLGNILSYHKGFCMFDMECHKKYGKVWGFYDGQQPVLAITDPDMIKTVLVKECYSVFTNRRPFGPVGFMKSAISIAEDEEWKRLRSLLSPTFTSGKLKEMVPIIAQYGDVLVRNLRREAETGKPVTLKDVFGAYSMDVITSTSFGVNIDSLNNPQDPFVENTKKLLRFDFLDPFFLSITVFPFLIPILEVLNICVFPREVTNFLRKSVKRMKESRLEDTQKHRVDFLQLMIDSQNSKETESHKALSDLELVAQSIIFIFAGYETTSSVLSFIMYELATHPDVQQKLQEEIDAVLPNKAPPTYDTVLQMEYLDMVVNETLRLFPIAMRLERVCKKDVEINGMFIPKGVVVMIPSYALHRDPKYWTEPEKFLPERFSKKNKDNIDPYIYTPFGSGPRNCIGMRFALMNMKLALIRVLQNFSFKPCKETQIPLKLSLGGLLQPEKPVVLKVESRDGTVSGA

Candida albicans [4] = experiment: Antifungal activity against fluconazole-resistant Candida albicans 100 assessed as inhibition of visible microbe growth by broth microdilution method; assay type: functional
A549 = experiment: Cytotoxicity in human A549 cells assessed as reduction in cell viability incubated for 24 hrs by MTT assay; assay type: cell-based; conditions: A549, 24 h
Cytochrome P450 2C9 = Cytochrome P450 2C9 (Homo sapiens, UniProt P11712); experiment: Inhibition of CYP2C9 in human liver microsomes using diclofenac pre-incubated for 10 mins before NADPH addition and measured after 10 mins by LC/MS/MS analysis; assay type: ADME
Chain of Cytochrome P450 2C9 (P11712 whole entry): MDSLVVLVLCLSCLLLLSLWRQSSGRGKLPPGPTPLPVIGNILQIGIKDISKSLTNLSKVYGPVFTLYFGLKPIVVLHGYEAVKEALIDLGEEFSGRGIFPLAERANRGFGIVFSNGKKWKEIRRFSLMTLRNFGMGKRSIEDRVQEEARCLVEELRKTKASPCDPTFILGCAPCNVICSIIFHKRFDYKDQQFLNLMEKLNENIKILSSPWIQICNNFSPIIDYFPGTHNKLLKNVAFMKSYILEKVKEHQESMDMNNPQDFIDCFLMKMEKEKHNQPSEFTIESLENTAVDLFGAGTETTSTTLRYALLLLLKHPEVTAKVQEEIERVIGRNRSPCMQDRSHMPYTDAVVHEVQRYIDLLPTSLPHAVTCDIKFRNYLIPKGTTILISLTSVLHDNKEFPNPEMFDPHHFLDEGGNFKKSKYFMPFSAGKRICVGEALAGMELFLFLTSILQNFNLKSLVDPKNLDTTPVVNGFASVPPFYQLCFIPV

CC(C)COC(=O)[C@H](Cn1ccnc1)NC(=O)c1ccc(-c2ccccc2)cc1F
MIC (Cryptococcus neoformans): > 16 µg/mL
MIC (Candida albicans [1]): 0.25 µg/mL
MIC (Candida albicans [2]): 0.0312 µg/mL
MIC (Candida tropicalis): 0.0312 µg/mL
MIC (Aspergillus fumigatus): 8 µg/mL

CC(C)OC(=O)[C@H](Cn1ccnc1)NC(=O)c1ccc(-c2ccccc2)c(Cl)c1
MIC (Cryptococcus neoformans): 8 µg/mL
MIC (Candida albicans [1]): 8 µg/mL
MIC (Candida albicans [2]): 8 µg/mL
MIC (Candida tropicalis): 1 µg/mL
MIC (Aspergillus fumigatus): > 16 µg/mL

CC(C)OC(=O)[C@H](Cn1ccnc1)NC(=O)c1ccc(-c2ccccc2)c(F)c1
IC50 (Cytochrome P450 1A2): > 50 µM
MIC (Cryptococcus neoformans): 8 µg/mL
IC50 (Cytochrome P450 2D6): > 50 µM
MIC (Candida albicans [1]): 0.5 µg/mL
IC50 (Cytochrome P450 2C19): 43.4 µM
IC50 (U-87 MG): > 50 µM
MIC (Candida albicans [3]): 2 µg/mL
IC50 (Cytochrome P450 3A4): 4.05 µM
MIC (Candida albicans [4]): 8 µg/mL
IC50 (A549): > 50 µM
MIC (Candida albicans [2]): 0.0312 µg/mL
MIC (Candida tropicalis): 0.0312 µg/mL
MIC (Aspergillus fumigatus): 2 µg/mL
IC50 (Cytochrome P450 2C9): > 50 µM

CC(C)OC(=O)[C@H](Cn1ccnc1)NC(=O)c1c(F)cc(-c2ccccc2)cc1F
MIC (Cryptococcus neoformans): > 16 µg/mL
MIC (Candida albicans [1]): 0.5 µg/mL
MIC (Candida albicans [2]): 2 µg/mL
MIC (Candida tropicalis): 0.5 µg/mL
MIC (Aspergillus fumigatus): > 16 µg/mL

CC(C)COC(=O)[C@H](Cn1ccnc1)NC(=O)c1ccc(-c2ccccc2F)c(F)c1
MIC (Cryptococcus neoformans): > 16 µg/mL
MIC (Candida albicans [1]): 0.25 µg/mL
MIC (Candida albicans [3]): 4 µg/mL
MIC (Candida albicans [4]): 8 µg/mL
MIC (Candida albicans [2]): 0.0625 µg/mL
MIC (Candida tropicalis): 0.0625 µg/mL
MIC (Aspergillus fumigatus): > 16 µg/mL

CC(C)OC(=O)[C@H](Cn1ccnc1)NC(=O)c1ccc(-c2ccccc2F)c(F)c1
MIC (Cryptococcus neoformans): 8 µg/mL
MIC (Candida albicans [1]): 0.0625 µg/mL
MIC (Candida albicans [3]): 2 µg/mL
MIC (Candida albicans [4]): 16 µg/mL
MIC (Candida albicans [2]): 0.0312 µg/mL
MIC (Candida tropicalis): 0.0312 µg/mL
MIC (Aspergillus fumigatus): > 16 µg/mL

CC(C)COC(=O)[C@H](Cn1ccnc1)NC(=O)c1ccc(-c2ccccc2)c(F)c1
MIC (Cryptococcus neoformans): > 16 µg/mL
MIC (Candida albicans [1]): 0.25 µg/mL
MIC (Candida albicans [2]): 0.0312 µg/mL
MIC (Candida tropicalis): 0.0312 µg/mL
MIC (Aspergillus fumigatus): 4 µg/mL

COc1cc(-c2ccccc2)ccc1C(=O)N[C@@H](Cn1ccnc1)C(=O)OC(C)C
MIC (Cryptococcus neoformans): > 16 µg/mL
MIC (Candida albicans [1]): 8 µg/mL
MIC (Candida albicans [2]): 1 µg/mL
MIC (Candida tropicalis): 1 µg/mL
MIC (Aspergillus fumigatus): > 16 µg/mL

Cc1cc(-c2ccccc2)ccc1C(=O)N[C@@H](Cn1ccnc1)C(=O)OCC(C)C
MIC (Cryptococcus neoformans): > 16 µg/mL
MIC (Candida albicans [1]): > 16 µg/mL
MIC (Candida albicans [2]): 2 µg/mL
MIC (Candida tropicalis): 0.5 µg/mL
MIC (Aspergillus fumigatus): > 16 µg/mL

Cc1cc(-c2ccccc2)ccc1C(=O)N[C@@H](Cn1ccnc1)C(=O)OC(C)C
MIC (Cryptococcus neoformans): > 16 µg/mL
MIC (Candida albicans [1]): > 16 µg/mL
MIC (Candida albicans [2]): 2 µg/mL
MIC (Candida tropicalis): 0.5 µg/mL
MIC (Aspergillus fumigatus): > 16 µg/mL

CC(C)OC(=O)[C@H](Cn1ccnc1)NC(=O)c1ccc(-c2ccccc2F)cc1F
MIC (Cryptococcus neoformans): > 16 µg/mL
MIC (Candida albicans [1]): 0.5 µg/mL
MIC (Candida albicans [2]): 0.125 µg/mL
MIC (Candida tropicalis): 0.25 µg/mL
MIC (Aspergillus fumigatus): > 16 µg/mL

CC(C)OC(=O)[C@H](Cn1ccnc1)NC(=O)c1ccc(-c2ccc(C#N)cc2)cc1F
MIC (Cryptococcus neoformans): > 16 µg/mL
MIC (Candida albicans [1]): 8 µg/mL
MIC (Candida albicans [2]): 4 µg/mL
MIC (Candida tropicalis): 2 µg/mL
MIC (Aspergillus fumigatus): > 16 µg/mL

CC(C)OC(=O)[C@H](Cn1ccnc1)NC(=O)c1ccc(-c2ccccc2)cc1Cl
MIC (Cryptococcus neoformans): 8 µg/mL
MIC (Candida albicans [1]): 4 µg/mL
MIC (Candida albicans [2]): 8 µg/mL
MIC (Candida tropicalis): 0.5 µg/mL
MIC (Aspergillus fumigatus): > 16 µg/mL

CC(C)COC(=O)[C@H](Cn1ccnc1)NC(=O)c1ccc(-c2ccccc2)c(Cl)c1
MIC (Cryptococcus neoformans): 8 µg/mL
MIC (Candida albicans [1]): 4 µg/mL
MIC (Candida albicans [2]): 8 µg/mL
MIC (Candida tropicalis): 0.25 µg/mL
MIC (Aspergillus fumigatus): > 16 µg/mL

CC(C)OC(=O)[C@H](Cn1ccnc1)NC(=O)c1ccc(-c2ccccc2)cc1F
IC50 (Cytochrome P450 1A2): > 50 µM
MIC (Cryptococcus neoformans): > 16 µg/mL
IC50 (Cytochrome P450 2D6): 19.1 µM
MIC (Candida albicans [1]): 0.25 µg/mL
IC50 (Cytochrome P450 2C19): 7.44 µM
IC50 (U-87 MG): > 50 µM
MIC (Candida albicans [3]): 4 µg/mL
IC50 (Cytochrome P450 3A4): 0.0429 µM
MIC (Candida albicans [4]): 16 µg/mL
IC50 (A549): > 50 µM
MIC (Candida albicans [2]): 0.0312 µg/mL
MIC (Candida tropicalis): 0.0312 µg/mL
MIC (Aspergillus fumigatus): 4 µg/mL
IC50 (Cytochrome P450 2C9): 4.49 µM

CC(C)COC(=O)[C@H](Cn1ccnc1)NC(=O)c1ccc(-c2ccc(C#N)cc2)cc1F
MIC (Cryptococcus neoformans): > 16 µg/mL
MIC (Candida albicans [1]): > 16 µg/mL
MIC (Candida albicans [2]): > 16 µg/mL
MIC (Candida tropicalis): 0.5 µg/mL
MIC (Aspergillus fumigatus): > 16 µg/mL

Cc1cc(C(=O)N[C@@H](Cn2ccnc2)C(=O)OC(C)C)ccc1-c1ccccc1
MIC (Cryptococcus neoformans): > 16 µg/mL
MIC (Candida albicans [1]): > 16 µg/mL
MIC (Candida albicans [2]): > 16 µg/mL
MIC (Candida tropicalis): 8 µg/mL
MIC (Aspergillus fumigatus): > 16 µg/mL

CC(C)COC(=O)[C@H](Cn1ccnc1)NC(=O)c1ccc(-c2ccccc2)cc1Cl
MIC (Cryptococcus neoformans): 8 µg/mL
MIC (Candida albicans [1]): 4 µg/mL
MIC (Candida albicans [2]): 8 µg/mL
MIC (Candida tropicalis): 0.25 µg/mL
MIC (Aspergillus fumigatus): > 16 µg/mL

Cc1cc(C(=O)N[C@@H](Cn2ccnc2)C(=O)OCC(C)C)ccc1-c1ccccc1
MIC (Cryptococcus neoformans): > 16 µg/mL
MIC (Candida albicans [1]): > 16 µg/mL
MIC (Candida albicans [2]): > 16 µg/mL
MIC (Candida tropicalis): 4 µg/mL
MIC (Aspergillus fumigatus): > 16 µg/mL

CC(C)COC(=O)[C@H](Cn1ccnc1)NC(=O)c1ccc(-c2ccccc2F)cc1F
MIC (Cryptococcus neoformans): > 16 µg/mL
MIC (Candida albicans [1]): 0.5 µg/mL
MIC (Candida albicans [2]): 0.125 µg/mL
MIC (Candida tropicalis): 0.25 µg/mL
MIC (Aspergillus fumigatus): > 16 µg/mL

COc1cc(-c2ccccc2)ccc1C(=O)N[C@@H](Cn1ccnc1)C(=O)OCC(C)C
MIC (Cryptococcus neoformans): > 16 µg/mL
MIC (Candida albicans [1]): > 16 µg/mL
MIC (Candida albicans [2]): 4 µg/mL
MIC (Candida tropicalis): 2 µg/mL
MIC (Aspergillus fumigatus): > 16 µg/mL

CC(C)COC(=O)[C@H](Cn1ccnc1)NC(=O)c1c(F)cc(-c2ccccc2)cc1F
MIC (Cryptococcus neoformans): > 16 µg/mL
MIC (Candida albicans [1]): 0.5 µg/mL
MIC (Candida albicans [2]): 2 µg/mL
MIC (Candida tropicalis): 2 µg/mL
MIC (Aspergillus fumigatus): > 16 µg/mL

OC(Cn1cncn1)(Cn1cncn1)c1ccc(F)cc1F [FLUCONAZOLE]
MIC (Cryptococcus neoformans): 4 µg/mL
MIC (Candida albicans [1]): 0.5 µg/mL
MIC (Candida albicans [3]): > 64 µg/mL
MIC (Candida albicans [4]): > 64 µg/mL
MIC (Candida albicans [2]): 1 µg/mL
MIC (Candida tropicalis): 1 µg/mL
MIC (Aspergillus fumigatus): > 16 µg/mL

CCC(C)n1ncn(-c2ccc(N3CCN(c4ccc(OCC5COC(Cn6cncn6)(c6ccc(Cl)cc6Cl)O5)cc4)CC3)cc2)c1=O (centres undefined) [ITRACONAZOLE]
MIC (Cryptococcus neoformans): 1 µg/mL
MIC (Candida albicans [1]): 0.0625 µg/mL
MIC (Candida albicans [2]): 0.25 µg/mL
MIC (Candida tropicalis): 0.5 µg/mL
MIC (Aspergillus fumigatus): 4 µg/mL
